The values that follow come from patent US20240368150A1 (Hoffmann-La Roche Inc., priority 2021, published 2024).

Each structure is given as a SMILES string. Like-named read-outs stand apart in the source and are kept apart here.

Test [1] has as its system primary human T-cells. Put plainly: Proliferation assay after 5 days (CellTiter-Glo, CD3 stimulation; PBS counter screen). Type of test: cell-based. Conditions: CD3 stimulation; for Emax: read-out: Emax proliferation (% activation); for EC50: primary human T-cells, CellTiter-Glo after 5 days, EC50 of fitted sigmoidal curve, read-out: Tcell Proliferation CD3 EC50. In short, it runs like this:
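Cpds added to medium-only plates; 5 d culture. Readout CellTiter-Glo 2.0 (equal vol), RT 45 min equilibration, 15 min rocking RT, luminescence. ATP signal taken as cell number.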
For orientation: In ATP-based viability assays light output follows the ATP content of the culture.

For test [2], the system named is primary human T-cells.
[3] abbreviates: Homo sapiens, T-cell, 120 h, 5 days, normalized to reference compound A1 as stimulator control = 100%, DMSO neutral control.

For the compound `CC(C)(C)c1nnc(-c2ccc3c(c2)N(Cc2ccc(Oc4ccc(F)cc4)cc2)C(=O)[C@@H](N)CS3(=O)=O)o1` [Example 439, (3R)-3-amino-7-(5-tert-butyl-1,3,4-oxadiazol-2-yl)-5-[[4-(4-fluorophenoxy)phenyl]methyl]-1,1-dioxo-2,3-dihydro-1λ^6,5-benzothiazepin-4-one], the Emax in test [1] (setting [3]) stood at 138%. Also, the EC50 stood at 0.299 µM in test [1] (Homo sapiens, T-cell, 120 h) and 2.1 µM in test [2].
The matching figures for `CC(C)(C)c1nnc(-c2ccc3c(c2)N(Cc2ccc(Oc4ccc(C(F)(F)F)cn4)cc2)C(=O)[C@@H](N)CS3(=O)=O)o1` [Example 440, (3R)-3-amino-7-(5-tert-butyl-1,3,4-oxadiazol-2-yl)-1,1-dioxo-5-[[4-[[5-(trifluoromethyl)-2-pyridyl]oxy]phenyl]methyl]-2,3-dihydro-1λ^6,5-benzothiazepin-4-one]: 110%, 2.52 µM and 2.51 µM.
For `CC#CCOc1ccc(CN2C(=O)[C@@H](N)CS(=O)(=O)c3ccc(-c4nnc(C(C)(C)C)o4)cc32)cc1` [Example 441, (3R)-3-amino-7-(5-tert-butyl-1,3,4-oxadiazol-2-yl)-5-[(4-but-2-ynoxyphenyl)methyl]-1,1-dioxo-2,3-dihydro-1λ^6,5-benzothiazepin-4-one] the same measures were 128%, 1.02 µM and 3.85 µM.
The matching figures for `COC(=O)N1CC2CC(c3nnc(-c4ccc5c(c4)N(Cc4ccc(OC(F)(F)C(F)F)cc4)C(=O)[C@@H](N)CS5(=O)=O)o3)(C2)C1` [Example 443, Methyl 1-[5-[(3R)-3-amino-1,1,4-trioxo-5-[[4-(1,1,2,2-tetrafluoroethoxy)phenyl]methyl]-2,3-dihydro-1λ^6,5-benzothiazepin-7-yl]-1,3,4-oxadiazol-2-yl]-3-azabicyclo[3.1.1]heptane-3-carboxylate]: 97%, 3.85 µM and greater than 10 µM.
On to `CC(C)(C)c1nnc(-c2ccc3c(c2)N(Cc2ccc(N4CCN(C5CC5)CC4)cc2)C(=O)[C@@H](N)CS3(=O)=O)o1` [Example 445, (3R)-3-amino-7-(5-tert-butyl-1,3,4-oxadiazol-2-yl)-5-[[4-(4-cyclopropylpiperazin-1-yl)phenyl]methyl]-1,1-dioxo-2,3-dihydro-1λ^6,5-benzothiazepin-4-one], for which the Emax in test [1] (setting [3]) was determined as 88%. Further, the EC50 in test [1] (Homo sapiens, T-cell, 120 h) is 4.25 µM; in test [2] it was 9.56 µM.
For `CC(C)(C)c1nnc(-c2ccc3c(c2)N(Cc2ccc(N4CCOCC4)cc2)C(=O)[C@@H](N)CS3(=O)=O)o1` [Example 446, (3R)-3-amino-7-(5-tert-butyl-1,3,4-oxadiazol-2-yl)-5-[(4-morpholinophenyl)methyl]-1,1-dioxo-2,3-dihydro-1λ^6,5-benzothiazepin-4-one] the same measures were 51%, 9.9 µM and 7.57 µM.
The matching figures for `COC1CCN(c2ccc(CN3C(=O)[C@@H](N)CS(=O)(=O)c4ccc(-c5nnc(C(C)(C)C)o5)cc43)cc2)CC1` [Example 447, (3R)-3-amino-7-(5-tert-butyl-1,3,4-oxadiazol-2-yl)-5-[[4-(4-methoxy-1-piperidyl)phenyl]methyl]-1,1-dioxo-2,3-dihydro-1λ^6,5-benzothiazepin-4-one]: 113%, greater than 10 µM and 2.54 µM.
The matching figures for `CC(C)(C)c1nnc(-c2ccc3c(c2)N(Cc2ccc(N4CCCC4)cc2)C(=O)[C@@H](N)CS3(=O)=O)o1` [Example 448, (3R)-3-amino-7-(5-tert-butyl-1,3,4-oxadiazol-2-yl)-1,1-dioxo-5-[(4-pyrrolidin-1-ylphenyl)methyl]-2,3-dihydro-1λ^6.5-benzothiazepin-4-one]: 94%, 1.96 µM and 4.62 µM.
In the case of `C#CCC(C)(C)c1nnc(-c2cc3c(cc2F)S(=O)(=O)C[C@H](N)C(=O)N3Cc2ccc(OC(F)(F)F)cc2)o1` [Example 450, (3R)-3-amino-7-[5-(1,1-dimethylbut-3-ynyl)-1,3,4-oxadiazol-2-yl]-8-fluoro-1,1-dioxo-5-[[4-(trifluoromethoxy)phenyl]methyl]-2,3-dihydro-1λ^6,5-benzothiazepin-4-one], in test [1] (setting [3]), the Emax stood at 114%. Further, the EC50 was determined as 0.0715 µM in test [1] (Homo sapiens, T-cell, 120 h) and 0.0731 µM in test [2].
With `CC(C)(C)c1nnc(-c2cc3c(cc2F)[S+]([O-])C[C@H](N)C(=O)N3Cc2ccc(OC(F)(F)F)cc2)o1` (stereo partly drawn) [Example 453], in test [1] (5 days, normalized to reference compound A1 as stimulator control = 100%, DMSO neutral control), the “Emax proliferation (% activation)” value was 136 % activation. For the same compound, the values for the EC50 in test [1] and in test [2] were 0.444 µM and 0.178 µM, respectively.
Take `CCN1CCCC(Nc2nnc(-c3cc4c(cc3F)S(=O)(=O)C[C@H](N)C(=O)N4Cc3ccc(Cl)cc3)o2)C1` (stereo partly drawn) [Example 457, (3R)-3-amino-5-[(4-chlorophenyl)methyl]-7-[5-[(1-ethyl-3-piperidyl)amino]-1,3,4-oxadiazol-2-yl]-8-fluoro-1,1-dioxo-2,3-dihydro-1λ^6,5-benzothiazepin-4-one]: the Emax in test [1] (setting [3]) came to 50%. Besides, the EC50 is 1.14 µM in test [1] (Homo sapiens, T-cell, 120 h) and 4.88 µM in test [2].
For `N[C@H]1CS(=O)(=O)c2cc(F)c(-c3nnc(NC4CCN(C5CC5)CC4)o3)cc2N(Cc2ccc(Cl)cc2)C1=O` [Example 460, (3R)-3-amino-5-[(4-chlorophenyl)methyl]-7-[5-[(1-cyclopropyl-4-piperidyl)amino]-1,3,4-oxadiazol-2-yl]-8-fluoro-1,1-dioxo-2,3-dihydro-1λ^6,5-benzothiazepin-4-one] the same measures were 55%, 5.7 µM and 0.509 µM.
As to `CN(C)c1nnc(-c2cc3c(cc2F)S(=O)(=O)C[C@H](N)C(=O)N3Cc2ccc(Cl)cc2)o1` [Example 465, (3R)-3-amino-5-[(4-chlorophenyl)methyl]-7-[5-(dimethylamino)-1,3,4-oxadiazol-2-yl]-8-fluoro-1,1-dioxo-2,3-dihydro-1λ^6,5-benzothiazepin-4-one], the Emax in test [1] (setting [3]) is 100%. Moreover, the EC50 in test [1] (Homo sapiens, T-cell, 120 h) was 0.171 µM; in test [2] it was 1.17 µM.
In the case of `NC1CN(c2nnc(-c3cc4c(cc3F)S(=O)(=O)C[C@H](N)C(=O)N4Cc3ccc(Cl)cc3)o2)CCC1(F)F` (stereo partly drawn) [Example 467, (3R)-3-amino-7-[5-(3-amino-4,4-difluoro-1-piperidyl)-1,3,4-oxadiazol-2-yl]-5-[(4-chlorophenyl)methyl]-8-fluoro-1,1-dioxo-2,3-dihydro-1λ^6,5-benzothiazepin-4-one], the Emax in test [1] (setting [3]) worked out at 102%. For the same compound, the EC50 in test [1] (Homo sapiens, T-cell, 120 h) came to 0.88 µM; in test [2], 0.475 µM.
For the compound `CC1(C#N)CCN(c2nnc(-c3cc4c(cc3F)S(=O)(=O)C[C@H](N)C(=O)N4Cc3ccc(Cl)cc3)o2)CC1` [Example 468, 4-methyl-1-[5-[(3R)-3-amino-5-[(4-chlorophenyl)methyl]-8-fluoro-1,1,4-trioxo-2,3-dihydro-1λ^6,5-benzothiazepin-7-yl]-1,3,4-oxadiazol-2-yl]piperidine-4-carbonitrile], the Emax in test [1] (setting [3]) worked out at 127%. For the same compound, the EC50 was 2.67 µM in test [1] (Homo sapiens, T-cell, 120 h) and 3.78 µM in test [2].
The matching figures for `N[C@H]1CS(=O)(=O)c2cc(F)c(-c3nnc(N4C[C@H]5C[C@@H](C4)C5(F)F)o3)cc2N(Cc2ccc(Cl)cc2)C1=O` [Example 469, (3R)-3-amino-5-[(4-chlorophenyl)methyl]-8-fluoro-1,1-dioxo-7-[5-[(1R,5S)-6,6-difluoro-3-azabicyclo[3.1.1]heptan-3-yl]-1,3,4-oxadiazol-2-yl]-2,3-dihydro-1λ^6,5-benzothiazepin-4-one]: 105%, 0.17 µM and 2.55 µM.
As to `CN1CCN(c2nnc(-c3cc4c(cc3F)S(=O)(=O)C[C@H](N)C(=O)N4Cc3ccc(Cl)cc3)o2)CC1` [Example 470, (3R)-3-amino-5-[(4-chlorophenyl)methyl]-8-fluoro-7-[5-(4-methylpiperazin-1-yl)-1,3,4-oxadiazol-2-yl]-1,1-dioxo-2,3-dihydro-1λ^6,5-benzothiazepin-4-one], the Emax in test [1] (setting [3]) amounted to 101%. In addition, the EC50 stood at 1.41 µM in test [1] (Homo sapiens, T-cell, 120 h) and 0.551 µM in test [2].
The matching figures for `CC(=O)N1CCN(c2nnc(-c3cc4c(cc3F)S(=O)(=O)C[C@H](N)C(=O)N4Cc3ccc(Cl)cc3)o2)CC1` [Example 471, (3R)-7-[5-(4-acetylpiperazin-1-yl)-1,3,4-oxadiazol-2-yl]-3-amino-5-[(4-chlorophenyl)methyl]-8-fluoro-1,1-dioxo-2,3-dihydro-1λ^6.5-benzothiazepin-4-one]: 65%, 8.03 µM and greater than 10 µM.
In the case of `N[C@H]1CS(=O)(=O)c2cc(F)c(-c3nnc(N4CCOC5(CC5)C4)o3)cc2N(Cc2ccc(Cl)cc2)C1=O` [Example 472, (3R)-3-amino-5-[(4-chlorophenyl)methyl]-8-fluoro-7-[5-(4-oxa-7-azaspiro[2.5]octan-7-yl)-1,3,4-oxadiazol-2-yl]-1,1-dioxo-2,3-dihydro-1λ^6,5-benzothiazepin-4-one], the Emax in test [1] (setting [3]) came out at 115%. Besides, the EC50 is 0.116 µM in test [1] (Homo sapiens, T-cell, 120 h) and 0.109 µM in test [2].
With `CC1(C)CN(c2nnc(-c3cc4c(cc3F)S(=O)(=O)C[C@H](N)C(=O)N4Cc3ccc(Cl)cc3)o2)CCO1` [Example 473, (3R)-3-amino-5-[(4-chlorophenyl)methyl]-7-[5-(2,2-dimethylmorpholin-4-yl)-1,3,4-oxadiazol-2-yl]-8-fluoro-1,1-dioxo-2,3-dihydro-1λ^6,5-benzothiazepin-4-one], the Emax in test [1] (setting [3]) was found to be 126%. Further, the EC50 in test [1] (Homo sapiens, T-cell, 120 h) worked out at 0.403 µM; in test [2], 2.61 µM.
